How the values were obtained:
Septoria tritici [1] = assay: Preventative control of leaf blotch on wheat (Septtr P7), green house; format: in vivo; conditions: inoculated 7 days after spraying, untreated control 90
Procedure: The spray solutions were prepared in several steps: The stock solution were prepared: a mixture of acetone and/or dimethylsulfoxide and the wetting agent/emulsifier Wettol, which is based on ethoxylated alkylphenoles, in a relation (volume) solvent-emulsifier of 99 to 1 was added to 25 mg of the compound to give a total of 5 ml. Water was then added to total volume of 100 ml. This stock solution was diluted with the described solvent-emulsifier-water mixture to the given concentration. G1. Preventative Control of Brown Rust on Wheat Caused by Puccinia recondita (Puccrt P1) G3. Preventative Control of Leaf Blotch on Wheat Caused by Septoria tritici (Septtr P7) Leaves of pot-grown wheat seedling were sprayed to run-off with an aqueous suspension of the active compound or their mixture, prepared as described. The plants were allowed to air-dry. Seven days later the plants were inoculated with an aqueous spore suspension of Septoria tritici. Then the trial plants were immediately transferred to a humid chamber at 18-22° C. and a relative humidity close to 100%. After 4 days the plants were transferred to a chamber with 18-22° C. and a relative humidity close to 70%. After 4 weeks the extent of fungal attack on the leaves was visually assessed as % diseased leaf area.

Septoria tritici [2] = assay: Microtest: activity against leaf blotch on wheat (Septtr); format: cell-based
Procedure: The active compounds were formulated separately as a stock solution having a concentration of 10000 ppm in dimethyl sulfoxide. M2. Activity Against Leaf Blotch on Wheat Caused by Septoria tritici(Septtr) The stock solutions were mixed according to the ratio, pipetted onto a micro titer plate (MTP) and diluted with water to the stated concentrations. A spore suspension of Septoria tritici in an aqueous biomalt or yeast-bactopeptone-glycerine solution was then added. The plates were placed in a water vapor-saturated chamber at a temperature of 18° C. Using an absorption photometer, the MTPs were measured at 405 nm 7 days after the inoculation.

Phakopsora pachyrhizi = assay: Protective control of soy bean rust on soy beans (Phakpa P2), green house; format: in vivo; conditions: inoculated 2 days after spraying, untreated control 90
Procedure: The spray solutions were prepared in several steps:
The stock solution were prepared: a mixture of acetone and/or dimethylsulfoxide and the wetting agent/emulsifier Wettol, which is based on ethoxylated alkylphenoles, in a relation (volume) solvent-emulsifier of 99 to 1 was added to 25 mg of the compound to give a total of 5 ml. Water was then added to total volume of 100 ml. This stock solution was diluted with the described solvent-emulsifier-water mixture to the given concentration. G1. Preventative Control of Brown Rust on Wheat Caused by Puccinia recondita (Puccrt P1)
G4. Protective Control of Soy Bean Rust on Soy Beans Caused by Phakopsora pachyrhizi (Phakpa P2)
Leaves of pot-grown soy bean seedlings were sprayed to run-off with an aqueous suspension, containing the concentration of active ingredient or their mixture as described below. The plants were allowed to air-dry. The trial plants were cultivated for 2 days in a greenhouse chamber at 23-27° C. and a relative humidity between 60 and 80%. Then the plants were inoculated with spores of Phakopsora pachyrhizi. To ensure the success the artificial inoculation, the plants were transferred to a humid chamber with a relative humidity of about 95% and 20 to 24° C. for 24 h. […] The extent of fungal attack on the leaves was visually assessed as % diseased leaf area.

Row | SMILES | Disease (%) at 16 ppm Septtr P7 (Septoria tritici [1]) | Growth (%) at 0.00012 ppm Septtr (Septoria tritici [2]) | Disease (%) at 63 ppm Phakpa P2 (Phakopsora pachyrhizi)
1 | COC(C)(Cn1cncn1)c1ccc(Oc2ccc(Cl)cc2)cc1Cl (stereo not shown) | 80% | 63% | –
2 | CCC(Cn1cncn1)(OC)c1ccc(Oc2ccc(Cl)cc2)cc1Cl (stereo not shown) | – | – | 60%
3 | CC(Cn1cncn1)(OCc1ccccc1)c1ccc(Oc2ccc(Cl)cc2)cc1Cl (stereo not shown) [I-1, 1-[2-benzyloxy-2-[2-chloro-4-(4-chlorophenoxy)phenyl]propyl]-1,2,4-triazole] | – | 23% | –

Source: patent publication US9247746B2, “Fungicidal substituted 1-{2-cyclyloxy-2-[2-halo-4-(4-halogen-phenoxy)-phenyl]-ethyl}-1H-[1,2,4]triazole compounds” (BASF SE, priority 2011, dated 2016)
